Results from patent publication US20260335299A1, “SUBSTITUTED OXOISOINDOLINYL PIPERIDINE-2,6-DIONE COMPOUND AS ANTICANCER AGENT” (BRISTOL-MYERS SQUIBB COMPANY, priority 2023, published 2026).

Assays:
Assay type in all cases: cell-based
IKZF1 Ikaros [1] = molecular target: T1, IKZF1 Ikaros (Homo sapiens, UniProt Q13422+Q96SW2); assay: Jurkat Cellular Degradation Assay (Ikaros); parameters: endogenous in cells; host or cells: Jurkat cells; conditions: Jurkat cells, 72 h
Method: Jurkat cells were plated at 80,000 cells/well in 40 μL RPMI+10% FBS in a 384-well cell culture plate prior to using acoustic dispensing technology for adding a compound of interest. Cell cultures were incubated for 72 h at 37° C. and 5% CO2. In order to facilitate analysis, cell cultures were spun down at 200 rpm for 5 min and the supernatant was discarded. After shaking the plate to dislodge the cell pellet, cells were resuspended in 50 μL of Fixation Buffer (eBioscience FoxP3 buffer set 00-5523-00) for 60 min at room temperature. After centrifuging and discarding the supernatant, cells were permeabilized with 50 μL of Permeabilization buffer (eBioscience FoxP3 buffer set 00-5523-00) for 10 min at room temperature. Following permeabilization, cells were spun down and the supernatant was replaced with 20 μL fluorescently labelled antibodies against Helios, Ikaros and Aiolos or corresponding Isotype controls in 1× Permeabilization buffer (Ikaros-Alexa488 [Biolegend, Cat #368408, 1:50], Helios-PE [CST, Cat #29360, 1:50], Aiolos-Alexa647 [Biolegend, Cat #371106 Biolegend, 1:25]) and staining reactions were incubated for 1 h at room temperature while protected from light. Subsequently, 30 μL of 1× Permeabilization buffer was added prior to centrifuging the cells and discarding the supernatant. Stained cells were resuspended in 25 μL of flow cytometry staining buffer [PBS+0.2% bovine serum albumin (BSA)] and analyzed using an Intellicyt Ique Plus flow cytometer.
(§1) Table A-1 lists the maximum observed degradation of the IKZF1 protein, IKZF2 protein, and IKZF3 protein as measured in the Jurkat Cellular Degradation assay. The results in Table A-I were rounded to two digits. In the Jurkat Cellular Degradation assay, a value of 100% indicated no detectable protein remaining or complete degradation of the protein; and a value of 0% indicated no detectable degradation of the protein by the test compound.

IKZF1 Ikaros [2] = molecular target: T1, IKZF1 Ikaros; assay: Human Regulatory T Cell Degradation Assay (Ikaros); conditions: human regulatory T cells, 20 h
Method: Cryopreserved human regulatory T cells were thawed in RPMI+10% FBS+20 ng/mL IL-2. After being spun at 1200 rpm for 5 mins, the cells were resuspended in RPMI+10% FBS+20 ng/ml and rested at 37° C. with 5% CO2 for 3 hours. The cells were then plated at 40,000 cells/well in 40 μL RPMI+10% FBS+20 ng/mL human IL-2 in a 384 well cell culture plate prior to using acoustic dispensing technology (ECHO 555) for adding compounds of interest. Cell cultures were incubated for 20 hours at 37° C. and 5% CO2. In order to facilitate analysis, cell cultures were spun down at 1200 rpm for 5 minutes and the supernatant was discarded using an EL406 plate washer. After washing three times with […] PBS, cell pellets were resuspended in 50 μL of […] viability staining solution (Life Technologies, Cat #L34975) and incubated for 30 minutes on ice protected from light. Cells were washed three times with 70 μL PBS+0.5% BSA using an EL406 plate washer. After shaking the plate to dislodge the cell pellet, cells were resuspended in 50 μL of Fixation Buffer (eBioScience FoxP3 buffer set 00-5523-00) for 60 minutes at room temperature. After centrifuging and discarding the supernatant, cells were permeabilized with 50 μL of permeabilization buffer (eBioScience FoxP3 buffer set 00-5523-00) for 10 minutes at room temperature. Following permeabilization, cells were spun down and the supernatant was replaced with 30 μL fluorescently labelled antibodies against the intracellular targets Helios (Helios-APC [BioLegend, Cat #137222, 1:50])]), Aiolos, and Ikaros 1× Permeabilization buffer and staining reactions were incubated for 1 hour at room temperature; protected from light. Subsequently, […] Permeabilization buffer was added prior to centrifuging the cells and discarding the supernatant. Stained cells were resuspended in 30 μL of flow cytometry staining buffer (PBS+0.5% BSA) and analyzed using an Intellicyt Ique Plus flow cytometer.
as §1, with “B-1” for “A-1”, “protein and” for “protein,”, “IKZF2” for “IKZF2 protein, and IKZF3”, “Human Regulatory T Cell” for “Jurkat Cellular”, “B-1” for “A-I”

IKZF2 Helios = IKZF2 Helios (Homo sapiens, UniProt Q96SW2+Q9UKS7); assay: Jurkat Cellular Degradation Assay (Helios); parameters: endogenous in cells; host or cells: Jurkat cells; conditions: Jurkat cells, 72 h
Method: Jurkat cells were plated at 80,000 cells/well in 40 μL RPMI+10% FBS in a 384-well cell culture plate prior to using acoustic dispensing technology for adding a compound of interest. Cell cultures were incubated for 72 h at 37° C. and 5% CO2. In order to facilitate analysis, cell cultures were spun down at 200 rpm for 5 min and the supernatant was discarded. After shaking the plate to dislodge the cell pellet, cells were resuspended in 50 μL of Fixation Buffer (eBioscience FoxP3 buffer set 00-5523-00) for 60 min at room temperature. After centrifuging and discarding the supernatant, cells were permeabilized with 50 μL of Permeabilization buffer (eBioscience FoxP3 buffer set 00-5523-00) for 10 min at room temperature. […] Stained cells were resuspended in 25 μL of flow cytometry staining buffer [PBS+0.2% bovine serum albumin (BSA)] and analyzed using an Intellicyt Ique Plus flow cytometer.
Table A-1 lists the maximum observed degradation of the IKZF1 protein, IKZF2 protein, and IKZF3 protein as measured in the Jurkat Cellular Degradation assay. […]

[3] = concentration reducing protein level by 50% compared to DMSO alone

T1 sequence (Q13422 whole entry): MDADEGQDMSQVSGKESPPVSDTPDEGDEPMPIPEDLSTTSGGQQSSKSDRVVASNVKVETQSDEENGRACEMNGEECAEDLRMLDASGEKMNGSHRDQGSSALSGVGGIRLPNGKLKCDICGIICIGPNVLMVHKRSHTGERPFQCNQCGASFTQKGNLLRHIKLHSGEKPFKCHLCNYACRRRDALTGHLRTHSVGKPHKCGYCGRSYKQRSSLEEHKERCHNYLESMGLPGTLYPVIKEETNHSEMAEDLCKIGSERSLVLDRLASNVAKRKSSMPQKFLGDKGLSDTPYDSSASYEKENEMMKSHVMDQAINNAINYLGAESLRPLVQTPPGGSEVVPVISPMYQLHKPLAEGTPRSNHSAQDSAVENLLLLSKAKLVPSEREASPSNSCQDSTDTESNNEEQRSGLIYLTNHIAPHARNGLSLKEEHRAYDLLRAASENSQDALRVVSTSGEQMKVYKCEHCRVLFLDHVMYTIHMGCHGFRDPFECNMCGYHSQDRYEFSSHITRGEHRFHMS
T1 sequence (Q96SW2 whole entry): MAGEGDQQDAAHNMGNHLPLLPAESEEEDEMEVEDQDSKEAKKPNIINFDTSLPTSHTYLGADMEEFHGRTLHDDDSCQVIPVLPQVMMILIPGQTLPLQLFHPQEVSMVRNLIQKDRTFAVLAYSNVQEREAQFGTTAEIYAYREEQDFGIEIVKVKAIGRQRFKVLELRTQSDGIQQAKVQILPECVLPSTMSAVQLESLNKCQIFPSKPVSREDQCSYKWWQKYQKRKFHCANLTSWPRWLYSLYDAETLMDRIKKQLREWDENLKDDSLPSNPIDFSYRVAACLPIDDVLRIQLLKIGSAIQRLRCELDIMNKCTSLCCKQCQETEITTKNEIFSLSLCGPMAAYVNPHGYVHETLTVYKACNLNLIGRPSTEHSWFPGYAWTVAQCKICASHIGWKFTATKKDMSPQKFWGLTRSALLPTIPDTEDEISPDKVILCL
T1 sequence (Q16531 whole entry partner): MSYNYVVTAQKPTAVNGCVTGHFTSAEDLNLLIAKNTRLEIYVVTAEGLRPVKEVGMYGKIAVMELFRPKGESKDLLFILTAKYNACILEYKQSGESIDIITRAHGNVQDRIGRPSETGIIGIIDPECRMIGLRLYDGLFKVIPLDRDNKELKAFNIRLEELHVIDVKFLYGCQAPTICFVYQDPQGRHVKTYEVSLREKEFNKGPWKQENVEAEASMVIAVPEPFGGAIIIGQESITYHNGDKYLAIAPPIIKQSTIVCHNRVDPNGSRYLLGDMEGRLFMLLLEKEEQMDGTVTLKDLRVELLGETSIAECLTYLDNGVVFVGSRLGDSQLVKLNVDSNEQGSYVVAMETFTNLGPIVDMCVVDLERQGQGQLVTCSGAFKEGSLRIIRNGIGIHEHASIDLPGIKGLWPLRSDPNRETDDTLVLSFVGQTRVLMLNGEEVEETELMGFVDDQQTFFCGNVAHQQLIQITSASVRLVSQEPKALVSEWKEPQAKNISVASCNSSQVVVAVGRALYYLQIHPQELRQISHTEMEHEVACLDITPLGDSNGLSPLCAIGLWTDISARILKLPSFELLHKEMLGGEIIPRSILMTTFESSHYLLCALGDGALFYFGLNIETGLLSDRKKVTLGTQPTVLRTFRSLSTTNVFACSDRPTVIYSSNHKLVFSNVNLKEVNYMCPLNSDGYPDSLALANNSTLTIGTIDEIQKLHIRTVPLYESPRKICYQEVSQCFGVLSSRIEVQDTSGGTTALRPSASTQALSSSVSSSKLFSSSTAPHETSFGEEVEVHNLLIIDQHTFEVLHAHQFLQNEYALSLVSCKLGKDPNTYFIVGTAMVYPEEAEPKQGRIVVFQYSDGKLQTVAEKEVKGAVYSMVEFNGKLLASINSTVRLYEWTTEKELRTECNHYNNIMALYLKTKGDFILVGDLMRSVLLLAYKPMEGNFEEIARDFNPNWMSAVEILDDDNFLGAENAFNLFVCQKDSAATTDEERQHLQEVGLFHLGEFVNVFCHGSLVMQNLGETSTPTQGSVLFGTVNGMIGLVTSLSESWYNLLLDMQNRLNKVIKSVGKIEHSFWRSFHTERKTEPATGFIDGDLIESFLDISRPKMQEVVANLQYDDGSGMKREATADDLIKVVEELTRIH
Sequence of IKZF2 Helios (Q9UKS7 whole entry): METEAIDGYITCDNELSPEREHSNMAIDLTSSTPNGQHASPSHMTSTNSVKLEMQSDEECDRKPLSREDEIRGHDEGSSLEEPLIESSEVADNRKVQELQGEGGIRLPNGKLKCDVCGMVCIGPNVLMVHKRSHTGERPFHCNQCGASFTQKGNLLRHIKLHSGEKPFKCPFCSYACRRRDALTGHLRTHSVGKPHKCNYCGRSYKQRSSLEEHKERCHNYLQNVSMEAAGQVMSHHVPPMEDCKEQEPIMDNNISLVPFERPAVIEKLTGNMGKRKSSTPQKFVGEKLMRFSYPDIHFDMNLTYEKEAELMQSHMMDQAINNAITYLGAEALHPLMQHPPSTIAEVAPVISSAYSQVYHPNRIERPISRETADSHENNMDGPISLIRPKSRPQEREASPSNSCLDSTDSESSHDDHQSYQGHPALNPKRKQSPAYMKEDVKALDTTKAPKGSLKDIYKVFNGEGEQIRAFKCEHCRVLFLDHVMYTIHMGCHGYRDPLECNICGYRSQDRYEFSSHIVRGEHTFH
Sequence of IKZF2 Helios (Q96SW2 whole entry): as the sequence (Q96SW2 whole entry) above
Sequence of IKZF2 Helios (Q16531 whole entry partner): as the sequence (Q16531 whole entry partner) above

Compound: Nc1nc(-c2ccc3c(c2F)CN(C2CCC(=O)NC2=O)C3=O)ccc1CN1CC(C2CCC(F)(F)CC2)C1 (stereo not drawn) [Example 1, 3-(5-(6-Amino-5-((3-(4,4-difluorocyclohexyl)azetidin-1-yl)methyl)pyridin-2-yl)-4-fluoro-1-oxoisoindolin-2-yl) piperidine-2,6-dione]
- DC50 (IKZF1 Ikaros [1]; [3]): 90.9 nM
- Dmax (IKZF1 Ikaros [1]; human, read-out: IKZF1 Ikaros max % deg. observed): 69%
- Dmax (IKZF1 Ikaros [2]; Regulatory T cell, read-out: IKZF1 Ikaros max % deg. observed): 62%
- DC50 (IKZF1 Ikaros [2]; [3]): 194 nM
- DC50 (IKZF2 Helios; [3]): 4.4 nM
- Dmax (IKZF2 Helios; human, read-out: IKZF2 Helios max % deg. observed): 92%
